The source of these data is patent US20230183592A1, “[…] ORGANO[…] AS NON-[…]-WEAR AGENTS” (priority 2020, published 2023).

By IC50 is commonly meant the concentration needed to halve the response being measured.

For data set [1] the following is noted: sum of five 0/1 risk factors, 0 (lack of risk) to 5 (very high multiple risk). From the text:
The last column corresponds to a risk level score for the safety of these molecules for use in oils such as turbine oils and their alleged cabin toxicity. […] A 0 value indicates a lack of risk, and a 5 value indicates a very high multiple risk. For each risk, a factor 0 or 1 is assigned based on whether the value is above or below a threshold.

The target of data set [2] is T1, BuChE from equine serum (eqBuChE) (Equus caballus, UniProt P81908).
T1 construct: The BuChE freeze-dried from equine serum (eqBuChE, Sigma Aldrich); purchased Sigma Aldrich; host or cells: equine serum (natural source)
T1 sequence (P81908 whole entry): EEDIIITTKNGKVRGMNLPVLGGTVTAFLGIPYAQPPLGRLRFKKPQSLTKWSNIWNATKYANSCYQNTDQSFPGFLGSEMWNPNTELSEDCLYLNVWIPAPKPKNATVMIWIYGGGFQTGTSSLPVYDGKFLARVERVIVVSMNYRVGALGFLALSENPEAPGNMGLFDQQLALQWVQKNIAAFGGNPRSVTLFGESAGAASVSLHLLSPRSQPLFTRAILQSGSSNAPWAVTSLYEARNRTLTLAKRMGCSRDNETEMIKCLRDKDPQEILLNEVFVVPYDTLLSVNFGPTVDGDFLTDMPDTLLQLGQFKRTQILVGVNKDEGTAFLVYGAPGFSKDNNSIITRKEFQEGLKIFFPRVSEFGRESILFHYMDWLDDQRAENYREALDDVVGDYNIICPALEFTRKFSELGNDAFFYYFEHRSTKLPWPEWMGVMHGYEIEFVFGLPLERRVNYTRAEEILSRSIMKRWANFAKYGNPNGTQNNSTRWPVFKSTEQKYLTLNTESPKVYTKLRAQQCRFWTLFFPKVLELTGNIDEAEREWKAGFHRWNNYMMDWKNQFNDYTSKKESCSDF
The data set is described as follows: biochemical. The class given is biochemical. How it is done: (§1) In the extent that the toxic activity of TCP especially involves its action on cholinesterases, the effect of the compounds used according to the invention, as well as comparative compounds, on two cholinesterases was studied. The required concentration values of each compound to inhibit 50% of the activity of two cholinesterases were measured.
(§2) The acetylthiocholine and butyrylthiocholine iodide, and 5,5-dithiobis (2-nitrobenzoic) acid (DTNB) were purchased from Sigma Aldrich (Steinheim, Germany).
(§3) In the procedure, 100 μL of 0.3 mM DTNB dissolved in phosphate buffer, pH 7.4, were added in 96-well plates, followed by 50 μL solution of the test compound and 50 μL enzyme (final 0.05 U). After 5 minutes of pre-incubation at 25° C., the reaction was initiated by injecting 50 μL of 0.1 mM acetyl or butyryl thiocholine iodide solution. The acetyl or butyryl thiocholine hydrolysis was followed by the formation of yellow 5-thio 2-nitrobenzoate anion as the product of the reaction of DTNB with the thiocholine released by the enzymatic hydrolysis of the acetyl or butyryl thiocholine, at a wavelength of 412 nm, using a microplate reader (Synergy 2, Biotek, Colmar, France). The compounds to be tested were dissolved to 5×10^−3M in analytical grade DMSO. Donepezil or tacrine were used as reference standards. The absorption increase rate at 412 nm was determined 4 minutes after the addition of the acetyl or butyryl thiocholine iodide solution. The tests were carried out with a blank containing all the compounds except the acetyl or butyryl thiocholine in order to take into account non-enzymatic reactions.
(§4) The percentage of inhibition due to the presence of the test compounds was calculated using the following expression: […]
(§5) wherein vi is the rate calculated in the presence of the inhibitor, and v0 is the enzymatic activity.
(§6) All the experiments were carried out in n=3.

The target of data set [3] is T2, human erythrocyte AChE (hAChE) (Homo sapiens, UniProt P22303).
T2 construct: The human erythrocyte AChE (hAChE, aqueous buffer solution); purchased Sigma Aldrich; host or cells: human erythrocytes (natural source)
T2 sequence (P22303 32-617 isoform P22303-2 limits assumed): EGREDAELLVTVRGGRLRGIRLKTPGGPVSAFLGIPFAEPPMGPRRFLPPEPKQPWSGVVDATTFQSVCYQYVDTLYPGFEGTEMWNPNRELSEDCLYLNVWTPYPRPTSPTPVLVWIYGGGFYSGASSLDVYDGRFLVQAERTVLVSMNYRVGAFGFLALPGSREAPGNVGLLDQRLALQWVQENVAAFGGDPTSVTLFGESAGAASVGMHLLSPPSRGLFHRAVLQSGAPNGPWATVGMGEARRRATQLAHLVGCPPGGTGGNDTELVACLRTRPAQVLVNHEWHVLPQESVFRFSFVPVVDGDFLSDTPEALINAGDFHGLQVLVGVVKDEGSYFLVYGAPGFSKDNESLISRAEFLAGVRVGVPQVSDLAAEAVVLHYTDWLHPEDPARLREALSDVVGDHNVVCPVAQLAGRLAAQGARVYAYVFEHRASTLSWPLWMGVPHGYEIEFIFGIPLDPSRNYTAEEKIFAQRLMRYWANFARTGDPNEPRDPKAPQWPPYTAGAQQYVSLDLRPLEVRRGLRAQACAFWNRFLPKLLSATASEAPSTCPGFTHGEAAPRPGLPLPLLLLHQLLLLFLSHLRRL
The data set can be described thus: biochemical. Format: biochemical. The protocol:
as §1, §2, §3, §4, §5, §6

For data set [4] the following is noted: European Chemicals Agency website; cited from earlier work.
The mark [5] stands for this setting: equine serum BuChE, Ellman method, 5 min pre-incubation at 25° C., n=3.

Where two headings read alike, the source gives them in different places.

As for `O=P(Oc1c(F)cccc1F)(Oc1c(F)cccc1F)Oc1c(F)cccc1F` [Compound F, Tri(2,6-difluorophenyl)phosphate], the Risk level in data set [1] is recorded as at least 3.

Consider Saligenin cresyl phosphate [Compound J], for which, in data set [1], the Risk level is listed as 4. Also, the “IC50 eqBuChE” value in data set [2] (setting [5]) was found to be 0.7 µg/mL.

Molecule `CC(C)CCCCCCCOP(=O)(Oc1ccccc1)Oc1ccccc1` [Compound 1, isodecyl diphenylphosphate] displayed a Risk level in data set [1] of 0. For the same molecule, the IC50 was 38.4 µM in data set [3] and 93 µM in data set [2].

For the molecule `CCCCOC(=O)CC(SP(=S)(OCC(CC)CCCC)OCC(CC)CCCC)C(=O)OCCCC` (stereo not shown) [Compound N, Dibutyl [[bis[(2-ethylhexyl)oxy]phosphinothioyl]thio]succinate], in data set [1], the Risk level is at least 1. For the same molecule, in data set [4], the “ECHA's official data” value is listed as “No CMR, no acute toxicity”. Further, the figures for the concentration for half-maximal inhibition (IC50) in data set [3] and in data set [2] were 33.1 µM and 19 µM, respectively.

`CC(C)(C)c1ccc(OP(=O)(Oc2ccccc2)Oc2ccc(C(C)(C)C)cc2)cc1` [Compound H, di(p-tertbutylphenyl)phenylphosphate] registered a Risk level in data set [1] of 3.

Consider isononyl diphenylphosphate [Compound Q], for which, in data set [1], the Risk level was determined as 4.

In the case of Tricresyl phosphate [Compound P], in data set [1], the Risk level was determined as 4. Also, in data set [4], the “ECHA's official data” value is on record as “PBT* Reprotoxic”. In data set [3] (human erythrocyte AChE, Ellman method, 5 min pre-incubation at 25° C., n=3), the “IC50 hAChE” value was 16.9 µg/mL. For the same molecule, the “IC50 eqBuChE” value in data set [2] (setting [5]) was 0.7 µg/mL.

In data set [1], Trixylyl phosphate [Compound E] yielded a Risk level of at least 2. Also, in data set [4], the “ECHA's official data” value is reported as “PBT* Reprotoxic”.

As to “isododecyl diphenylphosphate [Compound 4]”, in data set [1], the Risk level is on record as 0.

For `Cc1ccc(OP(=O)(Oc2ccc(C)cc2)Oc2ccc(C)cc2)cc1` [Compound D, Tri(para-cresyl)phosphate], in data set [1], the Risk level was 3.

The molecule “Tri(4-isopropylbenzoate)phosphate [Compound G]” had a Risk level in data set [1] of 2.

In data set [1], `Cc1ccccc1OP(=O)(Oc1ccccc1C)Oc1ccccc1C` [Compound B, Tri(ortho-cresyl)phosphate] returned a Risk level of 5.

In data set [1], `O=P(Oc1ccccc1)(Oc1ccccc1)Oc1ccccc1` [Compound I1, tri phenyl phosphate] displayed a Risk level of 4. Further, the “ECHA's official data” value in data set [4] is “No CMR, no acute toxicity”. In addition, the results for the IC50 in data set [3] and in data set [2] were 33.1 µM and 42.9 µM, respectively.

Molecule `CCCCC(CC)COP(=O)(Oc1ccccc1)Oc1ccccc1` (stereo not shown) [Compound A, 2-ethylhexyl diphenylphosphate] came in with a Risk level in data set [1] of 4. The “ECHA's official data” value in data set [4] is given as “No CMR, no acute toxicity”.

In data set [1], `CC(C)COP(=O)(OCC(C)C)OCC(C)C` [Compound L, Tri(isobutyl)phosphate] registered a Risk level of 4. The “ECHA's official data” value in data set [4] is given as “No CMR, no acute toxicity”.

Regarding `Cc1cccc(OP(=O)(Oc2cccc(C)c2)Oc2cccc(C)c2)c1` [Compound C, Tri(meta-cresyl)phosphate], in data set [1], the Risk level came to 5.

`CC(C)(C)c1ccc(OP(=O)(Oc2ccc(C(C)(C)C)cc2)Oc2ccc(C(C)(C)C)cc2)cc1` [Compound I2, Tri(p-tert-butylphenyl)phosphate]: the Risk level in data set [1] stood at 3.

`CCCCC(CC)COP(=O)(OCC(CC)CCCC)OCC(CC)CCCC` (stereo not shown) [Compound M, Tris(2-ethylhexyl)phosphate] showed a Risk level in data set [1] of at least 2. Moreover, in data set [4], the “ECHA's official data” value is listed as “No CMR, no acute toxicity”. Besides, the IC50 in data set [3] (human erythrocyte AChE, Ellman method, 5 min pre-incubation at 25° C., n=3, read-out: IC50 hAChE (converted)) is 28.1 µM; in data set [2] (equine serum BuChE, Ellman method, 5 min pre-incubation at 25° C., n=3, read-out: IC50 eqBuChE (converted)), 279 µM.

In data set [1], `NP(=O)(Oc1ccccc1)Oc1ccccc1` [Compound K, Diphenyl phosphoroamidate] displayed a Risk level of 4.
